# Data published in patent US20240209028A1, “CNP COMPOUNDS” (priority 2022, published 2024).
# Like-named read-outs stand apart in the source and are kept apart here. Starred links: 1 amine or outer side, 2 acyl side, 3 side chain; linkers in the order of their positions; H or OH if unused. Positions of bridges follow the written chain, without caps; N, C: chain ends. Residues, ends and D or L forms follow the SMILES beside them. *: point of attachment. C18 diacid = O=C(O)CCCCCCCCCCCCCCCCC(=O)*; γGlu = O=C(O)[C@H](CCC(=O)[*:2])N[*:1]; AEEA = NCCOCCOCC(=O)O
# How the values were obtained:
# neprilysin (NEP) = neprilysin (NEP) (Homo sapiens, UniProt P08473); assay: In vitro neprilysin stability; details: recombinant human neprilysin (rhNEP), pH 7.4
# Procedure: Therefore, an in vitro neprilysin stability assay was set up to test the neprilysin mediated degradation of selected CNP compounds.
# Procedure: In short, the assay buffer consisted of PBS-buffer (pH 7.4, ThermoFisher Scientific) with a final concentration of 0.005% v/v tween 20 (Sigma-Aldrich). Recombinant human neprilysin (rhNEP; R&D Systems) and the CNP compounds were dissolved in assay buffer. Native CNP22 (0065, Chem. 1) was included as positive control on each day of incubation. Initially, the CNP compound (the final concentration was 1000 nM) was pre-incubated in assay buffer for 10 min at 37° C. The assay was started by adding either rhNEP (final concentration was 2 μg protein per mL) or assay buffer (adsorption experiment) and the incubation was conducted at 37° C. […] The mixture was centrifuged at 13000 rpm at 4° C. for 20 minutes. After centrifugation, one volume of supernatant was mixed with one volume of Milli-Q water.
# Analysis by LCMS: The mixture was analysed by LCMS using an Acquity UPLC Peptide CSH C18 analytical column from Waters (130 Å, 1.7 μm, 1*50 mm) operated at 60° C. A gradient elution was conducted with a Nexera UHPLC system (Shimadzu) using mobile phase A (consisting of Milli-Q water with 0.1% formic acid) and mobile phase B (consisting of acetonitrile with 0.1% formic acid). The flow was 0.3 ml/min. A zenoTOF 7600 mass spectrometer (Sciex) was used as detector and operated in positive electrospray ionisation mode. Data was recorded in full scan mode (m/z 300-1700).
# Calibration curves were prepared in assay buffer and treated as study samples. These samples were used for calculating the concentration of the relevant CNP compound in the in vitro samples. Quality control samples were included. For at least 75% of the standards and QCs, the deviation between nominal and calculated concentration was below 20%.
# All incubations were conducted in duplicate. Data was reported as percent remaining at 90 min (based on calculated concentrations) compared to the average concentration in the 0.5-minute time point samples.
# [1] = PK after i.v. and s.c. administration to Göttingen minipig; details: female, in vivo
# How it was run: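 Female Göttingen minipigs (6-12 months, ~22 kg) and domestic LYD pigs (4-5 months, ~80 kg) given CNP compounds i.v. (30-60 or 15-43 nmol/kg) or s.c. neck (55-62 or 20-30 nmol/kg) via catheter/pen. EDTA plasma sampled up to 14 days, CNP and cGMP by LC-MS; non-compartmental PK, F from dose-normalized AUC s.c./i.v.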
# [2] = Mouse growth study (tail and body length); assay type: in vivo, mice (C57BL/6J); details: for body length higher compared to control group: 35 days; for change in tail length (from day 0) increased compared to control animals: after 35 days; for Tail length, Mean (%) change from day 0 / Body length, Mean (%) change from day 0: C57BL/6J mice
# Description: The purpose of this study was to evaluate growth in mice after treatment with two doses of CNP compound.
# Procedure: Mice (C57BL/6J, male, age 4 weeks; n=10) received daily subcutaneous injections of compound 9482 or vehicle for 35 days. Formulations were prepared according to the principles described in General Methods of Preparation—Method G (30 and 70 nmol/kg, 10 mL/kg; Formulation buffer 8 mM sodium phosphate, 250 mM glycerol, 0.007% polysorbate 20, pH 7.4). Body weight and tail and body length were measured weekly throughout the study. The increase in growth was expressed as percentage change from day (mean (SD)).
# In Table 28, increase in tail length is expressed as percentage change from day 0 (mean (SD)). Statistically significant differences are indicated compared to control group (two-way ANOVA).
# In Table 29, increase in body length is expressed as percentage change from day 0 (mean (SD)). Statistically significant differences are indicated compared to control group (two-way ANOVA).
# [3] = PK after i.v. and s.c. administration to domestic LYD pig; details: female, domestic LYD pig, pig, in vivo, sc
# Description: The purpose of this study was to investigate pharmacokinetic and pharmacodynamic properties after intravenous (i.v.) and subcutaneous (s.c.) administration to Gottingen Minipig and domestic LYD pig, and to estimate bioavailability after s.c. dosing. Quantitative plasma analysis of CNP and cGMP levels were performed as described in
# Animals and dosing: The pharmacokinetic and pharmacodynamic studies in Gottingen Minipig or domestic LYD pig were conducted at CRO Minerva Imaging or Novo Nordisk A/S, respectively. CNP compounds were dosed to normal female 1) Gottingen minipigs 6-12 months of age with an average weight of 22 kg or 2) domestic LYD pigs 4-5 months of age with and average weight of 80 kg. At least one week prior to dosing, permanent central venous catheters were implanted for blood sampling and intravenous (i.v.) dosing. For subcutaneous (s.c.) dosing, the pigs were ultrasound scanned and the optimal injection area laterally on the neck marked by a permanent tattoo. An insulin pen (NovoPen Echo or NovoPen 4) and insulin needle (NovoFine 32G/4 mm or NovoTwist 32G/5 mm) were used for accurate deposition of the CNP formulations in the subcutaneous fat tissue with the needle perpendicular to the skin.
# CNP compounds were formulated according to the principles in General Methods of Preparation—Method G and were either A) 8 mM sodium phosphate, 250 mM glycerol, pH 6.5, B) 5 mM sodium acetate, 250 mM glycerol, pH 4.0, C) 5 mM sodium acetate, 240 mM propylene glycol, pH=4.0, D) 8 mM sodium phosphate, 250 mM glycerol, pH 7.5 or E) 20 mM sodium phosphate, 223 mM propylene glycol, pH 6.0.
# Intravenously, the CNP compounds were dosed at 30-60 nmol/kg to Minipig and 15-43 nmol/kg to domestic pig using formulations A-E. Subcutaneously, the CNP compounds were dosed at 55-62 nmol/kg to Minipig and 20-30 nmol/kg to domestic pig using formulations A-D.
# Sampling: Blood samples of approximately 1 mL were collected pre dose and up to 14 days post dose into EDTA-coated tubes (8 mM) for cGMP and CNP compound analysis by LC-MS. In few instances, cGMP was only analysed up to 48 hours post dose after intravenous dosing in domestic LYD pig. The blood samples were kept on wet ice for maximum 30 minutes until centrifugation for 10 minutes at 4° C. and minimum 1500G, and the plasma samples were stored at −20° C. until analysis.
# Plasma concentration-time profiles were analyzed by non-compartmental PK analysis using Phoenix WinNonlin 8.1, Pharsight Inc., Mountain View, CA, USA. Calculation of the area under the plasma concentration-time curve (AUC) was based on the “linear up log down” method, and uniform weighting was used for estimation of the terminal rate constant (λz). S.c. bioavailability (F) was calculated as the dose-normalized AUC (AUC/dose) after s.c. administration divided by the AUC/dose after i.v. administration. […]
# [4] = both 30 and 70 nmol/kg daily s.c., p<0.05
# Chain of neprilysin (NEP) (P08473 whole entry): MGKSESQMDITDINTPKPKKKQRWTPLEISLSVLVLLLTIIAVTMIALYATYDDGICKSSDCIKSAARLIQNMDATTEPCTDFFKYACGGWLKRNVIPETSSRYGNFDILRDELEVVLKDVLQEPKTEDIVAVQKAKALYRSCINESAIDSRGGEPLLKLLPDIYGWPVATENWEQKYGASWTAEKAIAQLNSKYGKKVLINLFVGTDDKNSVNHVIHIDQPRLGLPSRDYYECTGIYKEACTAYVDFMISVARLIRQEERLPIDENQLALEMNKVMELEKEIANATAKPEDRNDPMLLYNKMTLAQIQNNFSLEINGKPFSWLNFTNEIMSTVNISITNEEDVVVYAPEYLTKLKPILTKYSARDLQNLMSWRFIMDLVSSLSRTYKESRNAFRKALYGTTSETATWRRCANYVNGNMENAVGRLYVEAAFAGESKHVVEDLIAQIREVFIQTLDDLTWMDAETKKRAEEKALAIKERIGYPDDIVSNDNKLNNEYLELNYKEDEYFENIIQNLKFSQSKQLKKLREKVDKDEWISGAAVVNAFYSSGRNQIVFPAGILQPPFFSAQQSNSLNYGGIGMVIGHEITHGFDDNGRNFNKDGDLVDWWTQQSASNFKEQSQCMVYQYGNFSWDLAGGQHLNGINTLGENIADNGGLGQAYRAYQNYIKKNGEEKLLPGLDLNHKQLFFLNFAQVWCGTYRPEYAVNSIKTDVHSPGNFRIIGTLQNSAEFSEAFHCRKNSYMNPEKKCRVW
smiles,measurement,setting,value
CC[C@H](C)[C@@H]1NC(=O)[C@H](CCCNC(=N)N)NC(=O)[C@H](CC(=O)O)NC(=O)[C@H](CC(C)C)NC(=O)[C@@H]2CCCN2C(=O)[C@H](CC(C)C)NC(=O)CNC(=O)[C@H](Cc2ccccc2)NC(=O)[C@@H](NC(=O)CNC(=O)[C@H](CCC(N)=O)NC(=O)[C@H](CO)NC(=O)CNC(=O)CNC(=O)[C@H](CCCCN)NC(=O)[C@H](CCCCN)NC(=O)[C@H](CCC(N)=O)NC(=O)[C@H](C)NC(=O)CNC(=O)[C@H](CCCCN)NC(=O)[C@H](Cc2ccc(O)cc2)NC(=O)COCCOCCNC(=O)COCCOCCNC(=O)COCCOCCNC(=O)COCCOCCNC(=O)CC[C@H](NC(=O)CC[C@H](NC(=O)CCCCCCCCCCCCCCCCC(=O)O)C(=O)O)C(=O)O)CSSC[C@@H](C(=O)O)NC(=O)CNC(=O)[C@H](CC(C)C)NC(=O)CNC(=O)[C@H](CO)NC(=O)[C@H](CC(C)C)NC(=O)[C@H](CO)NC(=O)CNC1=O [Compound 9435] ({C18 diacid-γGlu-γGlu-AEEA-AEEA-AEEA-AEEA}-YKGAQKKGGSQGCFGLPLDRIGSLSGLGC-OH; disulfide 13-29),"remaining at 1.5 h, 1000 nM",neprilysin (NEP),93.2%
same,clearance,"[1]; iv, Göttingen Minipig, i.v., read-out: CL (ml/hr/kg), Intravenous PK (converted)",1.02 mL/h/kg
same,half-life,"[1]; iv, Göttingen Minipig, i.v., read-out: T½, iv (converted)",77 h
same,bioavailability,"[1]; sc, Göttingen Minipig, s.c. bioavailability, read-out: F (%), Subcutaneous PK",77%
same,half-life,"[1]; sc, Göttingen Minipig, s.c., read-out: T½, sc (converted)",82 h
CC[C@H](C)[C@@H]1NC(=O)[C@H](CCCNC(=N)N)NC(=O)[C@H](CC(=O)O)NC(=O)[C@H](CC(C)C)NC(=O)[C@@H]2CCCN2C(=O)[C@H](CC(C)C)NC(=O)CNC(=O)[C@H](Cc2ccccc2)NC(=O)[C@@H](NC(=O)CNC(=O)[C@H](CO)NC(=O)[C@H](CO)NC(=O)[C@H](CC(C)C)NC(=O)CNC(=O)[C@H](CCCCN)NC(=O)[C@H](CCCCN)NC(=O)[C@H](CCC(N)=O)NC(=O)[C@H](C)NC(=O)CNC(=O)[C@H](CCCCN)NC(=O)[C@H](Cc2ccc(O)cc2)NC(=O)[C@H](CCCCN)NC(=O)[C@H](CCCNC(=N)N)NC(=O)[C@H](C)NC(=O)[C@H](CCC(N)=O)NC(=O)[C@@H]2CCCN2C(=O)[C@H](Cc2c[nH]cn2)NC(=O)[C@H](CCC(=O)O)NC(=O)[C@H](CCC(N)=O)NC(=O)CC[C@H](NC(=O)CC[C@H](NC(=O)CC[C@H](NC(=O)CC[C@H](NC(=O)CC[C@H](NC(=O)CCCCCCCCCCCCCCCCC(=O)O)C(=O)O)C(=O)O)C(=O)O)C(=O)O)C(=O)O)CSSC[C@@H](C(=O)O)NC(=O)CNC(=O)[C@H](CC(C)C)NC(=O)CNC(=O)[C@H](CO)NC(=O)[C@H](CC(C)C)NC(=O)[C@H](CO)NC(=O)CNC1=O [compound 9482] ({C18 diacid-γGlu-γGlu-γGlu-γGlu-γGlu}-QEHPQARKYKGAQKKGLSSGCFGLPLDRIGSLSGLGC-OH; disulfide 21-37),body length higher compared to control group,[2]; 30 nmol/kg daily s.c.,30%
same,change in tail length (from day 0) increased compared to control animals,[2]; 30 nmol/kg daily s.c.,45%
same,"Tail length, Mean (%) change from day 0","[2]; 30 nmol/kg daily s.c., day 7",11.8%
same,"Body length, Mean (%) change from day 0","[2]; 30 nmol/kg daily s.c., day 8",10.2%
same,"Tail length, Mean (%) change from day 0","[2]; 30 nmol/kg daily s.c., day 14",16.0%
same,"Body length, Mean (%) change from day 0","[2]; 30 nmol/kg daily s.c., day 18",17.5%
same,"Tail length, Mean (%) change from day 0","[2]; 30 nmol/kg daily s.c., day 21",24.1%
same,"Body length, Mean (%) change from day 0","[2]; 30 nmol/kg daily s.c., day 25",22.5%
same,"Tail length, Mean (%) change from day 0","[2]; 30 nmol/kg daily s.c., day 28",25.6%
same,"Body length, Mean (%) change from day 0","[2]; 30 nmol/kg daily s.c., day 35",27.4%
same,"Tail length, Mean (%) change from day 0","[2]; 30 nmol/kg daily s.c., day 35",28.5%
same,body length higher compared to control group,[2]; 70 nmol/kg daily s.c.,67%
same,change in tail length (from day 0) increased compared to control animals,[2]; 70 nmol/kg daily s.c.,83%
same,"Tail length, Mean (%) change from day 0","[2]; 70 nmol/kg daily s.c., day 7",14.3%
same,"Body length, Mean (%) change from day 0","[2]; 70 nmol/kg daily s.c., day 8",12.8%
same,"Tail length, Mean (%) change from day 0","[2]; 70 nmol/kg daily s.c., day 14",20.3%
same,"Body length, Mean (%) change from day 0","[2]; 70 nmol/kg daily s.c., day 18",21.5%
same,"Tail length, Mean (%) change from day 0","[2]; 70 nmol/kg daily s.c., day 21",29.0%
same,"Body length, Mean (%) change from day 0","[2]; 70 nmol/kg daily s.c., day 25",29.0%
same,"Tail length, Mean (%) change from day 0","[2]; 70 nmol/kg daily s.c., day 28",32.0%
same,"Body length, Mean (%) change from day 0","[2]; 70 nmol/kg daily s.c., day 35",35.3%
same,"Tail length, Mean (%) change from day 0","[2]; 70 nmol/kg daily s.c., day 35",35.7%
same,time after which body length was significantly increased compared to control,[2]; [4],18 days
same,time after which tail length was significantly increased compared to control,[2]; [4],7 days
CC[C@H](C)[C@@H]1NC(=O)[C@H](CCCNC(=N)N)NC(=O)[C@H](CCC(=O)O)NC(=O)[C@H](CC(C)C)NC(=O)[C@H](CCCCN)NC(=O)[C@H](CC(C)C)NC(=O)CNC(=O)[C@H](Cc2ccccc2)NC(=O)[C@@H](NC(=O)CNC(=O)[C@H](CCCCN)NC(=O)[C@H](CO)NC(=O)[C@H](CC(C)C)NC(=O)CNC(=O)[C@H](CCCCN)NC(=O)[C@H](CCCCN)NC(=O)[C@H](CCC(N)=O)NC(=O)[C@H](C)NC(=O)CNC(=O)[C@H](CCCCN)NC(=O)[C@H](Cc2ccc(O)cc2)NC(=O)[C@H](CCCCN)NC(=O)[C@H](CCCNC(=N)N)NC(=O)[C@H](C)NC(=O)COCCOCCNC(=O)COCCOCCNC(=O)CC[C@H](NC(=O)CCCCCCCCCCCCCCCCC(=O)O)C(=O)O)CSSC[C@@H](C(=O)O)NC(=O)CNC(=O)[C@H](CC(C)C)NC(=O)CNC(=O)[C@H](CO)NC(=O)[C@H](CC(C)C)NC(=O)[C@H](CO)NC(=O)CNC1=O [compound 0776] ({C18 diacid-γGlu-AEEA-AEEA}-ARKYKGAQKKGLSKGCFGLKLERIGSLSGLGC-OH; disulfide 16-32),bioavailability,"[1]; Göttingen minipig and domestic LYD pig, minipig, sc",7 to 13%
CC[C@H](C)[C@@H]1NC(=O)[C@H](CCCNC(=N)N)NC(=O)[C@H](CC(=O)O)NC(=O)[C@H](CC(C)C)NC(=O)[C@H](CCCCN)NC(=O)[C@H](CC(C)C)NC(=O)CNC(=O)[C@H](Cc2ccccc2)NC(=O)[C@@H](NC(=O)CNC(=O)[C@H](CCCCN)NC(=O)[C@H](CO)NC(=O)[C@H](CC(C)C)NC(=O)CNC(=O)[C@H](CCCCN)NC(=O)[C@H](CCCCN)NC(=O)[C@H](CCC(N)=O)NC(=O)[C@H](C)NC(=O)CNC(=O)[C@H](Cc2c[nH]cn2)NC(=O)[C@H](CCC(=O)O)NC(=O)COCCOCCNC(=O)COCCOCCNC(=O)CC[C@H](NC(=O)CCCCCCCCCCCCCCCCC(=O)O)C(=O)O)CSSC[C@@H](C(=O)O)NC(=O)CNC(=O)[C@H](CC(C)C)NC(=O)CNC(=O)[C@H](CO)NC(=O)[C@H](CC(C)C)NC(=O)[C@H](CO)NC(=O)CNC1=O [compound 1235],bioavailability,[3],25%
